Experimental data as given in patent US8450456B2, “Activating peptide of the synthesis of aquaporins and cosmetic and/or pharmaceutical composition containing it” (ISP Investments Inc., priority 2007, dated 2013).
Ends that are not written are not given here.

Assays:
[1] = test system: normal human keratinocytes; assay: Protective effect against osmotic shock caused by sorbitol, viability test by MTT; assay type: cell-based; conditions: sorbitol 250 mM 24 hours, vs non-treated cells
Experimental: The aim of this study is to determine the protective effect of the peptide SEQ ID no4 with respect to normal human keratinocytes subjected to an osmotic shock caused by sorbitol. The evaluation of the cellular state is then carried out by a viability test by MTT.
Normal human keratinocytes in culture were placed in the presence of the peptide SEQ ID no4 at 0.5%, 1% and 3% from a mother solution at 50 ppm, 24 hours before and during the osmotic shock. The hypertonic culture conditions were realized by adding sorbitol at 250 mM to the culture medium for 24 hours. Non-treated controls are carried out.
Cellular viability tests were then carried out by the MTT technique. The MTT agent (3-[4,5-dimethylthiazol-2-yl]-2,5-diphenyltetrazolium bromide) is used to evaluate the cellular viability. The keratinocytes are incubated in a solution containing 0.1 mg/ml MTT (3-[4,5-dimethylthiazol-2-yl]-2,5-diphenyltetrazolium bromide). This compound is absorbed by the living cells, then metabolized by the mitochondrial enzymes (succinate dehydrogenase) in a blue-violet compound, formazan, which is present in the form of insoluble violet crystals in aqueous medium.
The formazan crystals are solubilized in DMSO. They produce an absorbance (O.D.) proportional to the number of living cells present in the sample. Measurements of absorbance at 540 nm are then carried out. […]

[2] = test system: aquaporin 3; assay: Expression of aquaporin 3 by immunofluorescence in samples of skin ex vivo; assay type: cell-based, human; conditions: 1% solution of a mother solution at 50 ppm applied topically, 24 hours or 48 hours (0.05 ppm); upper layers of the epidermis; vs non-treated control
Experimental: The aim of this study is to determine the influence of the peptide SEQ ID no5 on the expression of aquaporin 3 in samples of skin ex vivo.
Protocol: Samples of human skin are cultured at the air/liquid interface. A 1% solution of a mother solution at 50 ppm of peptide SEQ ID no4 is applied topically, then the samples are incubated for 24 hours or 48 hours.
These skin samples are then fixed with formaldehyde then enclosed in paraffin. Sections of 2 to 3 μm are then realized. The immunolabeling is carried out after different stages of washing and incubation of these sections. The immunolabeling is carried out by means of a specific polyclonal antibody of aquaporin 3 (anti-aquaporin 3 (C-18): goat polyclonal, sc-9885, Santa Cruz, dilution 1/100th), then a secondary antibody, coupled to a fluorescent marker (alexa-fluor 488 donkey anti-goat Ig G, Molecular Probes, dilution 1/1000th). The skin sections are then examined by epifluorescence microscope (Nikon Eclipse E600 microscope).

[3] = test system: Biopsies of human skin relieved of their stratum corneum; assay: Protective effect against induced cutaneous dehydration (tape stripping), ex vivo skin biopsies, H&E histology; assay type: cell-based; conditions: 1% solution of a mother solution at 50 ppm, 24 hours, stripped ex vivo human skin
Experimental: The aim of this study is to determine the protective effect of the peptide SEQ ID no5 with respect to ex vivo epidermis cultures subjected to a stress by an induced cutaneous dehydration.
Biopsies of human skin are relieved of their stratum corneum by stripping by means of an adhesive tape (tape stripping) then held in culture ex vivo, treated with a 1% solution of a mother solution at 50 ppm of peptide SEQ ID no5 for 24 hours. The absence of the stratum corneum induces a high dehydration. Hematoxylin-eosin (H&E) histological sections and stains allow the quality of the cutaneous structures to be evaluated.

[4] = test system: claudin-1; assay: Expression of claudin-1 by immunofluorescence on sections of human skin; assay type: cell-based; conditions: 1% solution of a mother solution at 50 ppm applied topically, 24 hours (0.05 ppm); in particular the upper layers of the epidermis
Description: (§1) The aim of this study is to determine the influence of the peptide SEQ ID no 5 on the expression of claudins and of keratin K10. Claudins are the principal transmembrane proteins of the intercellular adhesion structures known as tight-junction, which play a part in the cellular communication and in epidermal cohesion. Keratin K10 is a specific keratin of the differentiated epidermal layers (stratum granulosum) and is involved in the barrier function of the skin. The quantity of protein was evaluated by immunofluorescence on sections of human skin.
(§2) Protocol: Samples of human skin are cultured at the air/liquid interface. A 1% solution of a mother solution at 50 ppm of peptide SEQ ID no5 is applied topically, then the samples are incubated for 24 hours.
(§3) These skin samples are then fixed with formaldehyde, then enclosed in paraffin. Sections of 2 to 3 μm are then realized. The immunolabeling is carried out after different stages of washing and of incubation of these sections.
The immunolabeling of claudin-1 is carried out by means of a specific antibody of claudin-1 (claudin-1 antibody: rabbit polyclonal, ref: Ab15098, Abcam, dilution 1/200th), then a secondary antibody, coupled with a fluorescent marker (alexa Fluor 488 donkey anti-rabbit IgG, A21206, Molecular Probes, 1/1000th).
(§4) The skin sections are then examined by epifluorescence microscope (Nikon Eclipse E600 microscope).

[5] = test system: keratin K10; assay: Expression of keratin K10 by immunofluorescence on sections of human skin; assay type: cell-based; conditions: 1% solution of a mother solution at 50 ppm applied topically, 24 hours (0.05 ppm); in particular the upper layers of the epidermis
Description: as §1, §2, §3
The immunolabeling of keratin 10 is carried out by means of a specific antibody of keratin 10 (antibody K10: mouse monoclonal, ref: LHP1, Novocastra, dilution 1/50th), then a secondary antibody, coupled to a fluorescent marker (alexa Fluor 488 donkey anti-mouse IgG, A21202, Molecular Probes, 1/1000th).
as §4

Substance | viability of cells subjected to the osmotic shock (dose dependence) ([1]; peptide at 0.5%, 1% and 3% of a mother solution at 50 ppm) | increase of viability of cells subjected to the osmotic shock ([1]; peptide at 3% of a mother solution at 50 ppm, 24 hours before and during shock) | aquaporin 3 immunofluorescence [2] | appearance of the keratinocytes of the basal layer (regeneration) [3] | signs of cellular stress and preservation of cutaneous structures (H&E sections) ([3]; vs non-treated biopsies) | claudin-1 immunofluorescence [4] | keratin K10 immunofluorescence [5]
Asn-Pro-Ala-Arg (NPAR) [SEQ ID no4] | increase in the viability, dependent on dose | 12% | stronger fluorescence |  |  |  | 
Asn-Pro-Ala-Arg-NH2 (NPAR-NH2) [SEQ ID no5] |  |  |  | regenerating effect | distinct reduction to the signs of cellular stress and a better preservation of the cutaneous structures | stronger fluorescence | stronger fluorescence
